Source: patent US20100021505A1, “Composition and method to prevent or reduce diarrhea and steatorrhea in HIV patients” (priority 2008, published 2010)
“Also recorded” adds a separate entry of the source.

Assays:
[1] = system: pancrelipase; test: Pancrelipase reactivation by colipase; assay type: biochemical; conditions: for % Lipase Activity with Colipase: colipase 5 μg/mL; for effect of added colipase on the inhibition of pancrelipase (in words): excess colipase added to reaction mixture
Description: In brief, the above lipase assay procedure was used with the following variation: colipase solution replaced the distilled water so the concentration of colipase in the final reaction mixture was 5 μg/mL.

[2] = target: T1, pancrelipase (Sus scrofa, UniProt P00591); test: Lipase assay (USP titrimetric): inhibition of pancrelipase by HAART drugs and excipients; assay type: biochemical
T1 sequence (P00591 1-450): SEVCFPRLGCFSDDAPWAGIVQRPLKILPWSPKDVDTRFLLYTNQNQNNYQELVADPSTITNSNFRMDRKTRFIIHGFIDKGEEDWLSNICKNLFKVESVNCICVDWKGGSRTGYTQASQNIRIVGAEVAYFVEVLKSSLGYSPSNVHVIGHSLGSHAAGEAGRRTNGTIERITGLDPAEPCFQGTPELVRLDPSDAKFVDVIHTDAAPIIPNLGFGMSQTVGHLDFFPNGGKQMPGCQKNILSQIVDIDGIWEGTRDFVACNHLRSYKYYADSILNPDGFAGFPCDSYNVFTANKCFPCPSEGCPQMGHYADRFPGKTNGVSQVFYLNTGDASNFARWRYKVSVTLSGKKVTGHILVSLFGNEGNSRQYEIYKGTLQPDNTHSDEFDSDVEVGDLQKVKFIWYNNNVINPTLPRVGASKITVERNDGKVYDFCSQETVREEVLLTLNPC
Description: The enzyme sources consisted of USP Reference Standard Pancrelipase, USP Reference Standard Trypsin, colipase (Sigma Chemical Co.), and enterokinase (ICN Biochemicals). Appropriate concentrations of enzyme reference standard were prepared in cold distilled water, as described in USP reference assay procedures. The Infectious Disease Clinic in Somerville, N.J. provided the HAART medications. Pure drugs could not be obtained so commercial drug preparations were used in the assays.
One unit (U) of lipase activity is defined as the amount of enzyme that liberates one μequivalent of free fatty acid from triglycerides per minute at pH 9.0 and 37° C. Lipase activity (U/mg) was determined by a lipase specific titrimetric assay described in the United States Pharmacopeia (USP), Volume XXII. In brief, the substrate consists of 10% olive oil in acacia solution, 40-mg/mL sodium taurocholate, 0.075M calcium chloride, 0.05M Tris in 3.0M NaCl buffer solution (pH 7.5) and distilled water. The emulsified substrate is incubated at 37° C. and brought to pH 9.0 with 0.02N NaOH. At time zero, 1.0 mL of enzyme solution was added. A pH stat autotitrator was used to maintain pH 9.0 and the volume of 0.02 N NaOH dispensed per unit time was recorded for five (5) minutes. From the initial slope of this plot, lipase activity was calculated using the following equation: […]

[3] = system: pancrelipase; test: Recovery of pancrelipase activity after inhibition, by addition of excess lipase; assay type: biochemical
Description: The above procedure was used to monitor pancrelipase activity with the exception that drug was not preincubated with the substrate. At time zero 1.0 mL of pancrelipase was added to initiate the reaction. At five (5) minutes, 1.0 mL of HAART drug solution was added to the reaction mixture to cause inhibition of lipase activity. At twelve (12) minutes an additional 1.0 mL of pancrelipase was added to the reaction mixture to overcome HAART inhibition. The reaction was monitored for twenty (20) minutes.

[4] = system: HIV patients; conditions: Kakuda et al. 1998; cited from earlier work

| Compound | % Lipase Activity No Colipase ([1]; Drug Conc. 10.0 mg/mL) | % Lipase Activity with Colipase ([1]; Drug Conc. 10.0 mg/mL) | effect of added colipase on the inhibition of pancrelipase (in words) [1] | inhibition of pancrelipase (in words) [2] | % Pancrelipase Activity ([3]; after addition of drug solution at 5 minutes, before excess lipase) | % Reactivation of Pancrelipase ([3]; after additional 1.0 mL of pancrelipase at 12 minutes) | HIV patients experiencing diarrhea [4] | % Lipase Activity No Colipase ([1]; Drug Conc. 0.002 mg/mL) | % Lipase Activity with Colipase ([1]; Drug Conc. 0.002 mg/mL) |
| --- | --- | --- | --- | --- | --- | --- | --- | --- | --- |
| D-α-tocopheryl polyethylene glycol 1000 succinate [TPGS] | 21% | 79% | Pancrelipase inhibition was reversed; also recorded: restored pancrelipase activity | significant inhibition; also recorded: significantly inhibited | 55% | 98% | – | – | – |
| Cc1c(O)cccc1C(=O)N[C@@H](CSc1ccccc1)[C@H](O)CN1C[C@H]2CCCC[C@H]2C[C@H]1C(=O)NC(C)(C)C [nelfinavir, Nelfinavir] | – | – | – | – | – | – | 12-20% | – | – |
| CCCCCCCCCCC[C@@H](C[C@@H]1OC(=O)[C@H]1CCCCCC)OC(=O)[C@H](CC(C)C)NC=O [ORLISTAT ®, reference compound] | – | – | no effect | – | – | – | – | 37% | 29% |
